Measurements reported in EP0476645B1, “Calcium uptake inhibitors” (MERRELL DOW PHARMACEUTICALS INC., priority 1990, dated 1992).

Legend:
Rat PMNL = assay: Measurement of intracellular calcium in fMLP-stimulated PMNL preloaded with Fura-2; format: cell-based; settings: fMLP stimulus, preincubation with compound 15 minutes at 37°C, concentrations in figure 1
Procedure: Rat PMNL were obtained from exudates resulting from peritoneal injection of 6 mL of 8% sodium caseinate. Eighteen hours after injection rats were killed by carbon dioxide inhalation and the peritoneal cavity lavaged with Hank's balanced salt solution (HBSS). After concentration of the PMNL by centrifugation, contaminating erythrocytes were removed by hypotonic lysis. The PMNL were then washed twice by centrifugation (400 x g for 10 minutes) and resuspended in HBSS. Cell viability was greater than 90% by Trypan Blue exclusion and greater than 90% of the cells were PMNL by Wright-Giemsa stain.
Intracellular calcium levels were obtained using Fura-2 as fluorescent indicator (Grynkiewicz et al., 1985). Fura-2 was loaded into PMNL as the acetoxymethyl ester (Fura-2/AM) using the method of Korchak et al., (1988). Specifically, 1 X 10⁸ PMNL/mL were incubated in HBSS with 10 µM Fura-2/AM for 10 minutes at 37°C. The cells suspension was then diluted ten fold with HBSS and further incubated for another 20 minutes. The cells were then centrifuged (400 x g for 8 minutes at 25°C) and the PMNL (1 x 10⁷ cells/mL) resuspended in HBSS containing 1% bovine serum albumin. Cells were stored at room temperature and used within 3 hours.
Intracellular calcium level determinations were made using a dual wavelength spectrofluorometer (Photon Technology International, New Brunswick, NJ). Two mL of PMNL suspension (1 x 10⁷ cells/mL) were stirred magnetically at 37°C. Cells were preincubated with the compounds for 15 minutes at 37°C prior to activation. Where compounds were dissolved in DMSO and added directly, the DMSO never exceeded 0.3% in the final cell suspension. Total change in volume with addition of compounds or vehicle and stimuli never exceeded 3%. Intracellular calcium concentrations were calibrated by setting a maximum calcium level in the cells with the addition of 7 µM ionomycin to PMNL in HBSS containing 1% BSA. This was followed by treatment with 20 mM EGTA for 1 hour to obtain a minimum calcium level. […]

[1] = test system: Mustard Oil-Induced Mouse Ear Edema; assay: Mustard oil-induced mouse ear edema; format: in vivo, Charles River male CD-1 mice; settings: ear weight increase after 30 minutes
Procedure: Charles River male CD-1 mice weighing 30-60 grams were divided into randomized groups. They were dosed i.p. for 30 minutes prior or orally 1 hour prior to application of 20 µl of mustard oil (10% isothiocyanate in acetone) to the right ear. After 30 minutes the mice were sacrificed and an 8 millimeter diameter circular punch biopsy of each ear was obtained and weighed. The difference between the left (control) and right (treated) ear weights were expressed as percent increase.

[2] = test system: Carrageenin-Induced Rat Paw Edema; assay: Carrageenin-induced rat paw edema; format: in vivo, Charles River male Sprague-Dawley rats; settings: one hour prior to paw injection, paw volume three hours after carrageenin, dose not given
Procedure: Charles River male Sprague-Dawley rats weighing 90 to 100 grams were used. Inflammation of the left hind paw was induced by a 1% carrageenin solution (0.05 cc), injected into the plantar surface of the paw. The contralateral paw was injected with an equal volume of saline. Drugs were administered orally or i.p. (1 cc/100 grams) one hour prior to paw injection. Three hours following the carrageenin injection the difference in volume of the control and inflamed paw was measured. Each paw was immersed in a well of mercury and the volume of mercury displaced was recorded. Paws were uniformly dipped into the mercury up to the beginning of the hairline. A venous pressure transducer, coupled to a chart recorder, was employed to measure the small volumes of mercury displaced. Each group measurement consists of the average of four rats, each with three separate measurements.

[3] = 10 mg/Kg i.p., 30 minutes prior to mustard oil
[4] = 10 mg/Kg oral, 1 hour prior to mustard oil
[5] = 30 mg/Kg i.p., 30 minutes prior to mustard oil
[6] = 30 mg/Kg oral, 1 hour prior to mustard oil
[7] = 100 mg/Kg i.p., 30 minutes prior to mustard oil
[8] = 100 mg/Kg oral, 1 hour prior to mustard oil

| Compound | suppression of the second wave of intracellular calcium changes (Rat PMNL) | %Inhibition [1, 3] [%] | %Inhibition [1, 4] [%] | %Inhibition [1, 5] [%] | %Inhibition [1, 6] [%] | %Inhibition [1, 7] [%] | %Inhibition [1, 8] [%] | %Inhibition ([2]; i.p.) [%] | %Inhibition ([2]; p.o.) [%] |
| --- | --- | --- | --- | --- | --- | --- | --- | --- | --- |
| O=C(C#Cc1ccncc1)c1ccccc1 [MDL 101,098, 1-Phenyl-3-(4-pyridinyl)-2-propyne-1-one] | selective concentration-dependent suppression | 38.6 ± 13.1 | 38.5 ± 34.9 | 56.8 ± 6.4 | 6.4 ± 27.7 | 68.2 ± 5.8 | 43.9 ± 15.6 | 64.8 | 42.4 |
| CN(C)c1ccc(C(=O)C#Cc2ccncc2)cc1 [MDL 102,175, 1-(4-Dimethylaminophenyl)-3-(4-pyridinyl)-2-propyne-1-one] | selective concentration-dependent suppression | 38.6 ± 13.1 | 38.5 ± 34.9 | 56.8 ± 6.4 | 6.4 ± 27.7 | 68.2 ± 5.8 | 43.9 ± 15.6 | 73.2 | 19.8 |
